In patent US20200038413A1, “METHODS OF TREATING PARKINSON'S DISEASE USING AMINOSTEROL COMPOSITIONS” (Enterin, Inc., priority 2018, published 2020):

System: myenteric intrinsic primary afferent neurons (IPANs)
Assay: Whole-cell patch clamp, divided hemi-dissection preparation, FVB PD mice
Assay type: cell-based, mouse
Conditions: for decrease in sAHP area under the curve / depolarisation of RMP / increase in number of APs at 2× threshold intensity / number of APs at 2× threshold intensity / AP threshold / sAHP area under the curve / RMP: FVB PD
Description: Whole-cell Patch Clamp: Whole-cell patch clamp was performed on a hemi-dissected myenteric plexus preparation as previously described. […]
Myenteric Primary Afferent Neuron Excitation: Squalamine excites myenteric primary afferent neurons. The effect of squalamine on the excitability of an isolated intestinal segment from the FVB PD mouse was explored using divided hemi-dissection preparations so that neurons are exposed for only half the area of an opened small intestinal segment. In this experiment, the inquiry was whether squalamine influenced the activity of the IPAN through direct interaction or indirectly, by stimulating release of epithelial mediators that influenced IPAN behaviour. Addition of squalamine (30 μM) to Krebs buffer in either the epithelial or the myenteric plexus compartments of the divided hemi-dissection preparation increased IPAN excitability (FIG. 12A-F). […] Addition of squalamine decreased the area under the curve of the sAHP by 77% from 86.8±88.2 to 20.3±25.3 mV.s, and depolarised RMP by 12% from −62±7 to −54±6 mV.

[1] = 30 μM added to the myenteric plexus

## CC(C)[C@@H](CC[C@@H](C)[C@H]1CC[C@H]2[C@@H]3[C@H](O)C[C@H]4C[C@@H](NCCCNCCCCN)CC[C@]4(C)[C@H]3CC[C@]12C)OS(=O)(=O)O (single isomer, unassigned) [squalamine (ENT-01), squalamine]
30 μM added to the epithelium
  decrease in sAHP area under the curve: 77%
  depolarisation of RMP: 12%
  increase in number of APs at 2× threshold intensity: 87%
30 μM added to the epithelium, FVB PD mouse (N=15)
  decrease in AP threshold: 44%
30 μM added to the epithelium, before 1.6±0.6
  number of APs at 2× threshold intensity: 3.1±0.7
30 μM added to the epithelium, before 63.7±50.4
  AP threshold: 35.7±22.3 pA
30 μM added to the epithelium, before 86.8±88.2
  sAHP area under the curve: 20.3±25.3 mV.s
30 μM added to the epithelium, before −62±7
  RMP: −54±6 mV
[1]
  decrease in sAHP area under the curve: 87%
  depolarisation of RMP: 13%
  increase in number of APs at 2× threshold intensity: 214%
30 μM added to the myenteric plexus, FVB PD mouse (N=5)
  decrease in AP threshold: 37%
30 μM added to the myenteric plexus, before 1.4±0.5
  number of APs at 2× threshold intensity: 4.4±2.8
30 μM added to the myenteric plexus, before 46.0±31.3
  AP threshold: 29.0±10.1 pA
30 μM added to the myenteric plexus, before −63±4
  RMP: −55±6 mV
30 μM added to the myenteric plexus, before −71.9±60.1
  sAHP area under the curve: -9.6±15.1 mV.s
